From publication PMC11361638, “Chemical genetic screens reveal defective lysosomal trafficking as synthetic lethal with NF1 loss” (Journal of Cell Science, 2024) come the findings set out here.

In the experiment the target is T1, BORCS7 (Homo sapiens, UniProt Q96B45).
T1 construct: endogenous full-length protein in U87-MG cells, subunit of the eight-protein BORC
T1 sequence (Q96B45 1-106): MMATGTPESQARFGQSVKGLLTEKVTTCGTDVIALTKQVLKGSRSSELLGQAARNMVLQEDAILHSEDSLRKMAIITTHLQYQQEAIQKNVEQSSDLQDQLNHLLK
The experiment is described as follows: click-chemistry pulldown on alkyne resin, LC-MS/MS. In kind it is cell-based. The note with it: U87-MG cells treated with 2 µM for 2 h, lysed in 8 M urea; labelled compound; binding subunit within BORC not resolved.

As to `Cn1cnnc1S/C=C/C(=O)c1ccc(CCN=[N+]=[N-])cc1` [az-Y102], the iBAQ area ratio result is “Click-chemistry enriched pulldown results for p21 and BORCS7”.
